Assay results: US12409206B2, “Use of cyclosporine analogues for treating fibrosis” (Hepion Pharmaceuticals, Inc., priority 2020, dated 2025)

Assays:
Format in all cases: cell-based
[1] = test system: human precision cut IPF lung slices; test: Secreted markers (ELISA) in precision cut IPF lung slices in culture; settings: CRV431 applied at 5 μM; 4 daily treatment intervals; relative to DMSO vehicle
Experimental: (§1) This example describes a study conducted with precision cut lung slices. Precision cut slices from explanted lung tissue from a patient with biopsy-confirmed, idiopathic pulmonary fibrosis (IPF) were cultured for 6 days. Treatments were applied to 6 replicate slices per treatment on Day 2 of culture and replaced daily on Days 3, 4, and 5 of culture.
For generating the results of secreted marker (% daily average change) shown in FIG. 6A, spent medium (24-hr intervals) was collected on Days 3, 4, 5, and 6 to measure secretion by ELISA of six markers of inflammation and fibrosis: monocyte chemoattractant protein (MCP-1), interleukin-6 (IL-6), matrix metalloproteinase-7 (MMP-7), tissue inhibitor of metalloproteinase-1 (TIMP1), hyaluronic acid, and collagen 1α1. The mean level of secretion from 6 replicate slices for each drug treatment was expressed as a percentage change relative to DMSO vehicle treatment for each day of treatment, and then the mean percentage change from 4 daily treatment intervals was calculated.

[2] = test system: human precision cut IPF lung slices; test: Gene expression (RT-PCR) in precision cut IPF lung slices in culture; settings: CRV431 applied at 5 μM; Day 6 of culture after 4 days of treatment; β actin reference
Experimental: as §1
For generating the results of gene expression shown in FIG. 6B, RNA was isolated from 6 pooled lung slices per treatment on Day 6 of culture following 4 days of drug or vehicle treatment and evaluated by reverse transcription-polymerase chain reaction (RT-PCR) for 6 markers of inflammation and fibrosis: MCP-1, IL-6, TGFβ TIMP1, collagen 1α1, and α-smooth muscle actin (αSMA). β actin was used as a reference gene to calculate relative levels of each target gene RNA.

[3] = test system: human precision cut liver slices (PCLS); test: PCLS biomarker secretion (ELISA); settings: CRV431 applied at 5 μM; markers MCP-1, IL-6, TIMP1, hyaluronic acid, fibronectin, collagen 1α1
Experimental: (§2) PCLS were obtained from 5 human donors who underwent resection of liver cancer. Replicate slices were collected from healthy margins of the resections and cultured for 4 or 6 days depending on the experimental protocol. In the Nonstimulation Protocol slices were cultured for 6 days and treated for the entire period with DMSO vehicle or 5 μM CRV431. In the Stimulation Protocol slices were rested for 1 day and then administered the cytokines, TGFβ and PDGF-BB, for 3 days to stimulate inflammation and fibrosis. DMSO vehicle, CRV431 (1 and 5 μM), Alk5i (10 μM), obeticholic acid (5 μM), elafibranor (5 μM), resmetirom ([…]), and Aramchol (5 μM) were administered individually as drug treatments in the Stimulation Protocol concurrent with TGFβ+PDGF-BB. Culture medium treatments were replaced daily.
(§3) Four types of evaluations were conducted on the PCLS: (a) secretion of inflammation and fibrosis biomarkers into the culture medium, (b) histological staining and quantitation of Sirius red as a measure of tissue fibrosis, (c) gene expression of inflammation and fibrosis biomarkers by RT-PCR, and (d) RNA sequencing (RNA-Seq) of the complete transcriptome. Each of the four types of evaluation is described below: • (a) Biomarker secretion. Spent culture medium was collected daily from duplicate slices for each treatment. ELISAs were used to quantify secretion of monocyte chemoattractant protein (MCP-1), interleukin-6 (IL-6), tissue inhibitor of metalloproteinase-1 (TIMP1), hyaluronic acid, fibronectin, and collagen 1α1. For each donor the mean level of biomarker secretion in each treatment group was expressed as a percentage change relative to DMSO vehicle, the percentages averaged for all donors, and finally the mean daily percentage change calculated from all days of evaluation. […] Sirius red was quantified morphometrically in the histological sections as the percentage area with Sirius red staining in 10 sections from each treatment. In the Nonstimulation Protocol the quantity of Sirius red staining was expressed relative to the vehicle group. In the Stimulation Protocol the quantity of Sirius red staining was expressed relative to nonstimulated PCLS (0%) and TGFβ+PDGF-BB-stimulated+vehicle PCLS (100%). […] RNA was isolated from duplicate liver slices per treatment at the end of the experiments and evaluated by RT-PCR for 5 markers of inflammation and fibrosis: MCP-1, IL-6, TIMP1, αSMA, and collagen 1α1. β actin was used as a reference gene to calculate relative levels of each target gene RNA. […] RNA sequencing of the complete transcriptome (30 million reads per sample) was conducted on vehicle and 5 μM CRV431 treatment groups from 3 donors both from the Nonstimulation and Stimulation Protocols. […]

[4] = test system: human precision cut liver slices (PCLS); test: PCLS gene expression by RT-PCR; settings: CRV431 applied at 5 μM; markers MCP-1, IL-6, TIMP1, αSMA, collagen 1α1
Experimental: as §2, §3

COC(=O)c1ccc2c(c1)NC(=O)/C2=C(\Nc1ccc(N(C)C(=O)CN2CCN(C)CC2)cc1)c1ccccc1 [nintedanib, reference compound]
decreased: mean daily secretion of all markers (MCP-1, IL-6, MMP-7, TIMP1, hyaluronic acid, collagen 1α1) [1] | gene expression of all markers (MCP-1, IL-6, TGFβ, TIMP1, collagen 1α1, αSMA) [2] | mean daily secretion of all markers [3] | gene expression of all markers [4]

Cc1ccc(=O)n(-c2ccccc2)c1 [pirfenidone, reference compound]
decreased: mean daily secretion of all markers (MCP-1, IL-6, MMP-7, TIMP1, hyaluronic acid, collagen 1α1) [1] | gene expression of all markers (MCP-1, IL-6, TGFβ, TIMP1, collagen 1α1, αSMA) [2] | mean daily secretion of all markers [3] | gene expression of all markers [4]
